Source: patent publication US10221179B2, “Substituted pyrazoloquinazolinones and pyrroloquinazolinones as allosteric modulators of group II metabotropic glutamate receptors” (DOMAIN THERAPEUTICS, priority 2014, dated 2019)

Key:
[1] = target: T1, human mGluR2 (hmGluR2) (Homo sapiens, UniProt Q14416); test: Ca++ functional assay, human mGluR2 transiently over-expressed in HEK-293 cells (agonist and negative allosteric modulator modes); format: cell-based; conditions: glutamate at EC80, intracellular calcium (Fluo4AM), read-out: hmGluR2 negative allosteric modulator activity IC50
T1 construct: expressed in transfected cells; host or cells: HEK-293 cells, transient co-transfection by electroporation
T1 sequence (Q14416 19-872): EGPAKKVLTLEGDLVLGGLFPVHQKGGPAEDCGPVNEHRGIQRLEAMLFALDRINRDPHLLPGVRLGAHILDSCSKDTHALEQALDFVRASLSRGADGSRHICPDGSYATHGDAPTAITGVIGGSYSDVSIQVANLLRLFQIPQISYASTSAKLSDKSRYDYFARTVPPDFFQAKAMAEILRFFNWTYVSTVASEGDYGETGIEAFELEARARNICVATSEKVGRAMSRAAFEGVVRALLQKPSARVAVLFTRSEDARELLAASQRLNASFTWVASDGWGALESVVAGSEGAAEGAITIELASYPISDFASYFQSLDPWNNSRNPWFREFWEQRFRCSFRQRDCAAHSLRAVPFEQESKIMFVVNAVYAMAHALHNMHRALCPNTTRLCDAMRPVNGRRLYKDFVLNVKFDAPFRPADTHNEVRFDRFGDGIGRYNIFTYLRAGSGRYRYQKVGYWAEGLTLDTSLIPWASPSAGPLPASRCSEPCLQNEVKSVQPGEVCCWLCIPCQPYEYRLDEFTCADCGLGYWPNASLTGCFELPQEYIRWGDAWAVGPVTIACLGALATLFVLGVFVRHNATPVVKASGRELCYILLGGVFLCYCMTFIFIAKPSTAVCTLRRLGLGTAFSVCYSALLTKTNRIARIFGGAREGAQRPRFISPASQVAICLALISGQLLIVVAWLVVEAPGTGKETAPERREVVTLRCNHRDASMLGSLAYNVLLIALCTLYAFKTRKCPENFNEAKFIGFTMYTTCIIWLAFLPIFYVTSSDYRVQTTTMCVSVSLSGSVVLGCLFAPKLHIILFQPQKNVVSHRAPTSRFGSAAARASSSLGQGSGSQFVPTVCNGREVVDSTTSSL
Description: Example 127: Human mGluR2 and mGluR3 Evaluation Using Ca^++ Functional Assay
Examples of the present invention were tested successively for their agonist and negative allosteric modulator activities on human mGluR2 (hmGluR2) and mGluR3 (hmGluR3) transiently over-expressed in HEK-293 cells.
Cell Culture and Transfection
HEK-293 cells are maintained in Modified Eagle's Medium supplemented with 10% Foetal Calf Serum, 1% Penicillin/Streptomycin and 1% non-essential amino acids at 37° C./5% CO2.
Cells are co-transfected by electroporation with four DNA plasmids encoding hmGluR2 or hmGluR3, a chimeric G protein allowing redirection of the activation signal to intracellular calcium pathway (Brabet I et al., Neuropharmacology 37(8), 1043-51, 1998), and two glutamate transporters minimizing receptor desensitization by endogenous glutamate. After transfection, cells are cultured for 24 h at 37° C./5% CO2.
Calcium Assay IC50 Determination
Receptor activity is detected by changes in intracellular calcium measured using the fluorescent Ca^2+ sensitive dye, Fluo4AM (Molecular Probes).
On the day of the assay, culture medium is aspirated and replaced during 3 hours by medium without serum supplemented with 1% Glutamax, 1% Penicillin/Streptomycin and 1% non-essential amino acids. Then, cells are washed with freshly prepared buffer B (HBSS 1×(PAA), Hepes 20 mM, MgSO4-7H2O 1 mM, Na2CO3 3.3 mM, CaCl2-2H2O 1.3 mM, 0.1% BSA, Probenecid 2.5 mM) and loaded at 37° C. in 5% CO2 for 1.5 hours with buffer B containing 1 μM Fluo4AM, 0.1 mg/mL Pluronic Acid, 7 μg/mL Glutamate Pyruvate Transaminase and 2 mM sodium pyruvate. Afterwards cells are washed twice with buffer B. Then cells are detached using StemPro Accutase (Fischer Scientific), resuspended in buffer B and seeded in 384 well plate at a density of 30,000 cells per well. Addition of compounds and intracellular Ca^2+ measurements (excitation 485 nm, emission 525 nm) are performed by the fluorescence microplate reader FLIPRTetra (Molecular Devices).
Agonist and negative allosteric modulator activities of compounds are consecutively evaluated on the same cell plate. […] Then, cells are stimulated by an EC80 glutamate concentration and fluorescence is recorded for additional 3 minutes. EC80 glutamate concentration is the concentration giving 80% of the maximal glutamate response. Agonist or negative allosteric modulator activity(ies) are evaluated in comparison to basal signals evoked by buffer B or EC80 glutamate alone, respectively.
For IC50 determination, a dose-response test is performed using 20 concentrations (ranging over 6 logs) of each compound. Dose-response curves are fitted using the sigmoidal dose-response (variable slope) analysis in GraphPad Prism program (Graph Pad Inc) and IC50 of negative allosteric modulator activity is calculated. Dose-response experiments are performed in duplicate, two times independently.

Row | Structure (SMILES) | IC50 [1] [nM] | melting point [°C]
1 | CCNc1ccc2c(c1)c(=O)n(C)c1cc(-c3ccnc(C(F)(F)F)c3)nn21 [Example 45, 7-Ethylamino-4-methyl-2-(2-trifluoromethyl-pyridin-4-yl)-4H-pyrazolo[1,5-a]quinazolin-5-one] | < 1000 | 239 to 242
2 | Cn1c(=O)c2cc(O)ccc2n2nc(-c3ccnc(C(F)(F)F)c3)cc12 [Example 48, 7-Hydroxy-4-methyl-2-(2-trifluoromethyl-pyridin-4-yl)-4H-pyrazolo[1,5-a]quinazolin-5-one] | < 1000 | > 250
3 | CCOc1ccc2c(c1)c(=O)n(C)c1cc(-c3ccnc(C(F)(F)F)c3)nn21 [Example 49, 7-Ethoxy-4-methyl-2-(2-trifluoromethyl-pyridin-4-yl)-4H-pyrazolo[1,5-a]quinazolin-5-one] | < 1000 | 152 to 158
4 | Cn1c(=O)c2ccc(F)cc2n2nc(-c3ccnc(C(F)(F)F)c3)cc12 [Example 55, 8-Fluoro-4-methyl-2-(2-trifluoromethyl-pyridin-4-yl)-4H-pyrazolo[1,5-a]quinazolin-5-one] | < 1000 | > 250
5 | CNc1ccc2c(=O)n(C)c3cc(-c4ccnc(C(F)(F)F)c4)nn3c2c1 [Example 61, 4-Methyl-8-methylamino-2-(2-trifluoromethyl-pyridin-4-yl)-4H-pyrazolo[1,5-a]quinazolin-5-one] | < 1000 | > 250
6 | Cn1c(=O)c2ccc(N3CCC(O)CC3)cc2n2nc(-c3ccnc(C(F)(F)F)c3)cc12 [Example 63, 8-(4-Hydroxy-piperidin-1-yl)-4-methyl-2-(2-trifluoromethyl-pyridin-4-yl)-4H-pyrazolo[1,5-a]quinazolin-5-one] | < 1000 | 112 to 117
7 | CN(C)c1ccc2c(=O)n(C)c3cc(-c4ccnc(C(F)(F)F)c4)nn3c2c1 [Example 64, 8-Dimethylamino-4-methyl-2-(2-trifluoromethyl-pyridin-4-yl)-4H-pyrazolo[1,5-a]quinazolin-5-one] | < 1000 | > 250
8 | Cn1c(=O)c2ccc(N3CC(O)C3)cc2n2nc(-c3ccnc(C(F)(F)F)c3)cc12 [Example 68, 8-(3-Hydroxy-azetidin-1-yl)-4-methyl-2-(2-trifluoromethyl-pyridin-4-yl)-4H-pyrazolo[1,5-a]quinazolin-5-one] | < 1000 | > 250
9 | Cn1c(=O)c2ccc(N3CCC(O)C3)cc2n2nc(-c3ccnc(C(F)(F)F)c3)cc12 (stereo not shown) [Example 70, 8-(3-Hydroxy-pyrrolidin-1-yl)-4-methyl-2-(2-trifluoromethyl-pyridin-4-yl)-4H-pyrazolo[1,5-a]quinazolin-5-one] | < 1000 | > 250
10 | Cn1c(=O)c2ccc(C(N)=O)cc2n2nc(-c3ccnc(C(F)(F)F)c3)cc12 [Example 77, 4-Methyl-5-oxo-2-(2-trifluoromethyl-pyridin-4-yl)-4,5-dihydro-pyrazolo[1,5-a]quinazoline-8-carboxylic Acid Amide] | < 1000 | > 250
11 | CNC(=O)c1ccc2c(=O)n(C)c3cc(-c4ccnc(C(F)(F)F)c4)nn3c2c1 [Example 78, 4-Methyl-5-oxo-2-(2-trifluoromethyl-pyridin-4-yl)-4,5-dihydro-pyrazolo[1,5-a]quinazoline-8-carboxylic Acid Methylamide] | < 1000 | > 250
12 | CCN(CC)C(=O)c1ccc2c(=O)n(C)c3cc(-c4ccnc(C(F)(F)F)c4)nn3c2c1 [Example 80, 4-Methyl-5-oxo-2-(2-trifluoromethyl-pyridin-4-yl)-4,5-dihydro-pyrazolo[1,5-a]quinazoline-8-carboxylic Acid Diethylamide] | < 1000 | 240 to 245
13 | Cn1c(=O)c2ccc(C(=O)N3CCOCC3)cc2n2nc(-c3ccnc(C(F)(F)F)c3)cc12 [Example 81, 4-Methyl-8-(morpholine-4-carbonyl)-2-(2-trifluoromethyl-pyridin-4-yl)-4H-pyrazolo[1,5-a]quinazolin-5-one] | < 1000 | > 250
14 | Cn1c(=O)c2ccc(C(=O)N3CCCC3)cc2n2nc(-c3ccnc(C(F)(F)F)c3)cc12 [Example 82, 4-Methyl-8-(pyrrolidine-1-carbonyl)-2-(2-trifluoromethyl-pyridin-4-yl)-4H-pyrazolo[1,5-a]quinazolin-5-one] | < 1000 | > 250
15 | Cn1c(=O)c2c(F)cccc2n2nc(-c3ccnc(C(F)(F)F)c3)cc12 [Example 85, 6-Fluoro-4-methyl-2-(2-trifluoromethyl-pyridin-4-yl)-4H-pyrazolo[1,5-a]quinazolin-5-one] | < 1000 | > 250
16 | COc1cc2c(=O)n(C)c3cc(-c4ccnc(C(F)(F)F)c4)nn3c2cc1OC [Example 87, 7,8-Dimethoxy-4-methyl-2-(2-trifluoromethyl-pyridin-4-yl)-4H-pyrazolo[1,5-a]quinazolin-5-one] | < 1000 | > 250
17 | Cn1c(=O)c2cc(F)c(F)cc2n2nc(-c3ccnc(C(F)(F)F)c3)cc12 [Example 88, 7,8-Difluoro-4-methyl-2-(2-trifluoromethyl-pyridin-4-yl)-4H-pyrazolo[1,5-a]quinazolin-5-one] | < 1000 | > 206
18 | COc1cc2c(=O)n(C)c3cc(-c4ccnc(C(F)(F)F)c4)nn3c2cc1F [Example 89, 8-Fluoro-7-methoxy-4-methyl-2-(2-trifluoromethyl-pyridin-4-yl)-4H-pyrazolo[1,5-a]quinazolin-5-one] | < 1000 | 220 to 230
19 | COc1cc2c(=O)n(C)c3cc(-c4ccnc(C(F)(F)F)c4)nn3c2cc1N1CCC(O)CC1 [Example 90, 8-(4-Hydroxy-piperidin-1-yl)-7-methoxy-4-methyl-2-(2-trifluoromethyl-pyridin-4-yl)-4H-pyrazolo[1,5-a]quinazolin-5-one] | < 1000 | > 250
20 | CN(C)c1cc2c(cc1F)c(=O)n(C)c1cc(-c3ccnc(C(F)(F)F)c3)nn21 [Example 91, 8-Dimethylamino-7-fluoro-4-methyl-2-(2-trifluoromethyl-pyridin-4-yl)-4H-pyrazolo[1,5-a]quinazolin-5-one] | < 1000 | > 250
21 | COc1ccc2c(c1)c(=O)n(C)c1cc(-c3ccnc(OCC(F)(F)F)c3)nn21 [Example 102, 7-Methoxy-4-methyl-2-[2-(2,2,2-trifluoro-ethoxy)-pyridin-4-yl]-4H-pyrazolo[1,5-a]quinazolin-5-one] | < 1000 | 172 to 180
22 | Cn1c(=O)c2ccc(C(=O)N3CC(O)C3)cc2n2nc(-c3ccnc(C(F)(F)F)c3)cc12 [Example 110, 8-(3-Hydroxy-azetidine-1-carbonyl)-4-methyl-2-(2-trifluoromethyl-pyridin-4-yl)-4H-pyrazolo[1,5-a]quinazolin-5-one] | < 1000 | > 250
23 | Cn1c(=O)c2ccc(N3CCC(O)CC3)cc2n2nc(-c3ccnc(C4CC4)c3)cc12 [Example 113, 2-(2-Cyclopropyl-pyridin-4-yl)-8-(4-hydroxy-piperidin-1-yl)-4-methyl-4H-pyrazolo[1,5-a]quinazolin-5-one] | < 1000 | 221 to 233
